# From PMC6029275, “Cytotoxic properties of the anthraquinone derivatives isolated from the roots of Rubia philippinensis” (BMC Complementary and Alternative Medicine, 2018)
# Legend:
# Assay type in all cases: cell-based
# [1] = test system: MDA-MB-231 (human breast adenocarcinoma); test: MTT cytotoxicity assay, MDA-MB-231; conditions: for IC50: MTT, 24 h treatment, mean ± SD; for Selectivity index MDA-MB-231: ratio of IC50 on MDCK cells to IC50 in MDA-MB-231
# Protocol: (§1) The potential cytotoxicity of the isolated anthraquinone derivatives was studied against various cancer cell lines, including SK-MEL-5 (human melanoma), B16F10 (murine melanoma) MCF7 (human breast adenocarcinoma), and MDA-MB-231 (human breast adenocarcinoma) and the normal cell line MDCK (normal kidney epithelial) using the MTT assay. All cell lines were cultured in DMEM medium supplemented with 10% foetal bovine serum (FBS) and streptomycin–penicillin (100 μg/ml each; Hyclone) in a 5% CO2 humidified incubator. An MTT assay was employed to determine the percentage of the viability of various cancer cells as well as MDCK cells. All cells were first cultured in 96-well plates (1 × 10^5 cells/mL for all cancerous cells and 5 × 10^5 cells/mL for MDCK cells) for 24 h, and treated with indicated concentration of isolated compounds (6.25–100 μM for cancerous cells and 6.25–400 μM for MDCK cells). Various dilutions of stock culture were made in the culture medium to get the final concentration of the sample with a 0.1% of DMSO concentration, including the control. After 24 h incubation, MTT reagent was added to each well and the plate was incubated at 37 °C for 1 h. After removing the medium, the plate was washed twice with PBS (pH 7.4). The intracellular insoluble formazan was dissolved in 100% DMSO. A microplate reader was used to measure the absorbance of each cell line at 570 nm, and the percentage of cell viability was calculated. The absorbance value for the average of wells of cells treated with each test sample concentration was expressed as a percentage of this control and the IC50 values for each sample on each cell line were calculated. The anti-cancer drug oxaloplatin was used as a positive control.
# [2] = test system: MCF7 (human breast adenocarcinoma); test: MTT cytotoxicity assay, MCF7; conditions: for IC50: MTT, 24 h treatment, mean ± SD; for Selectivity index MCF7 (column head IC50 (μM)): ratio of IC50 on MDCK cells to IC50 in MCF7
# Protocol: as §1
# [3] = test system: MDCK (normal kidney epithelial cells); test: MTT cytotoxicity assay, normal cell line MDCK; conditions: 24 h treatment, mean ± SD
# Protocol: as §1
# [4] = test system: SK-MEL-5 (human melanoma); test: MTT cytotoxicity assay, SK-MEL-5; conditions: for IC50: MTT, 24 h treatment, mean ± SD; for Selectivity index SK-MEL-5 (column head IC50 (μM)): ratio of IC50 on MDCK cells to IC50 in SK-MEL-5
# Protocol: as §1
# B16F10 (murine melanoma) = test: MTT cytotoxicity assay, B16F10; conditions: for IC50: MTT, 24 h treatment, mean ± SD; for Selectivity index B16F10 (column head IC50 (μM)): ratio of IC50 on MDCK cells to IC50 in B16F10
# Protocol: as §1
Structure (SMILES),"IC50 ([1]; Homo sapiens, MDA-MB-231)","IC50 ([2]; Homo sapiens, MCF7)","IC50 ([3]; Canis lupus familiaris, MDCK)","IC50 ([4]; Homo sapiens, SK-MEL-5)","IC50 (B16F10 (murine melanoma); Mus musculus, B16-F10)",Selectivity index MDA-MB-231 [1],Selectivity index MCF7 (column head IC50 (μM)) [2],Selectivity index SK-MEL-5 (column head IC50 (μM)) [4],Selectivity index B16F10 (column head IC50 (μM)) (B16F10 (murine melanoma)),IC50 [1],IC50 [2],IC50 [3],IC50 [4],IC50 (B16F10 (murine melanoma))
"O=C1c2ccccc2C(=O)c2c(O)cc(O)cc21 [Compound 4, xanthopurpurin]",14.7 ± 1.45 µM,15.8 ± 1 µM,67.9 ± 1.02 µM,21.4 ± 0.99 µM,23.7 ± 1.71 µM,–,–,–,–,–,–,–,–,–
"CC(=O)OC[C@H]1O[C@@H](Oc2cc3c(c(O)c2C)C(=O)c2ccc(O)cc2C3=O)[C@H](O[C@H]2O[C@@H](C)[C@H](O)[C@@H](O)[C@H]2O)[C@@H](O)[C@@H]1O [Compound 1, 2-methyl-1,3,6-trihydroxy-9,10-anthraquinone-3-O-(6′-O-acetyl)-α-rhamnosyl(1 → 2)-β-glucoside]",49.4 ± 0.78 µM,65.5 ± 1.1 µM,192.3 ± 0.49 µM,91 ± 1.88 µM,48.68 ± 0.1 µM,3.89,2.94,2.11,3.95,–,–,–,–,–
"COCc1c(O)cc2c(c1O)C(=O)c1ccccc1C2=O [Compound 5, lucidin-ω-methyl ether]",13 ± 0.33 µM,24.1 ± 1.06 µM,79.01 ± 0.03 µM,42.8 ± 1.32 µM,29.5 ± 2.61 µM,6.06,3.28,1.85,2.68,–,–,–,–,–
"O=C1[O][Pt]2([NH][C@@H]3CCCC[C@H]3[NH]2)[O]C1=O [Oxaloplatin, oxaloplatin, reference compound]",–,–,–,–,–,–,–,–,–,7.95 ± 1.92 µM,8.59 ± 1.22 µM,24 ± 1.04 µM,14.2 ± 1.02 µM,10.5 ± 0.92 µM
"Cc1c(O)cc2c(c1O)C(=O)c1ccc(O)cc1C2=O [Compound 2, 2-methyl-1,3,6-trihydroxy-9,10-anthraquinone]",59.22 ± 0.4 µM,80 ± 1.14 µM,168.8 ± 0.61 µM,46.8 ± 1.39 µM,77.88 ± 0.34 µM,2.85,2.11,3.61,2.17,–,–,–,–,–
"O=C1c2ccccc2C(=O)c2c1ccc(O)c2O [Compound 3, alizarin]",48.64 ± 0.33 µM,49.2 ± 0.85 µM,199.3 ± 1.88 µM,53.08 ± 0.3 µM,98.8 ± 2.1 µM,–,–,–,–,–,–,–,–,–
